Laboratory results reported in patent US20210346359A1, “Use of CFTR Modulators For Treating Cerebrovascular Conditions” (Qanatpharma AG, priority 2018, published 2021).
“Also recorded” adds a separate entry of the source.

What was measured:
[1] = biological target: CFTR (Mus musculus, UniProt P26361); experiment: FACS-based FITC-S1P uptake in vascular smooth muscle cells; format: cell-based; set-up: mesenteric artery segments were isolated, cut into small pieces and digested with trypsin, collagenase and elastase; endogenous in cells; host or cells: primary mesenteric artery vascular smooth muscle cells; settings: primary vascular smooth muscle cells; 48 h TNF 10 ng/ml + C18 6 μmol/L for last 24 h
Method: Procedures for isolating and culturing mesenteric artery smooth muscle cells were carried out as described in (10). Briefly, mesenteric artery segments were isolated, cut into small pieces and digested with trypsin, collagenase and elastase. The resulting cell suspension was washed several times in phosphate-buffered saline and plated in Dulbecco's Modified Eagle Medium (DMEM) culture media containing 10% fetal bovine serum and 1% penicillin-streptomycin. Cell cultures were maintained at 37° C. with 5% CO2 and split at […] cells seeding density. Baby hamster kidney fibroblast cells stably expressing wild-type human CFTR (10,17) were maintained in DMEM/F12 media containing 5% fetal bovine serum and 250 μmol/L methotrexate (which activates the CFTR transgene promoter). Cells were maintained under standard cell culture conditions at 37° C. with 5% CO2.
As previously described (10), cell monolayers (treated or untreated) were incubated with 1 μmol/L S1P-FITC for 60 minutes; the cells were then detached by trypsinization, washed twice with ice-cold PBS, filtered through a 35 μm cell strainer and analyzed using the Becton-Dickinson FACS Canto operated by FACS DIVA version 6.1 software. […] The analysis procedure determined the mean fluorescence intensity (arbitrary units) of each cell population, which is a measure of uptake.

[2] = test system: mice with heart failure; experiment: MRI (FAIR) cerebral blood flow in heart failure mice; format: in vivo, mouse; settings: HF mice, forebrain cortical, 3 mg/kg daily for 2 days
Description: As described previously (10-12), we utilized a flow-sensitive alternating inversion recovery (FAIR) magnetic resonance imaging (MRI) technique (13) to evaluate cerebral blood flow (CBF). During imaging, mice were immobilized with 1.8% isoflurane delivered through a nose cone. To maintain body temperature, the MRI is equipped with embedded tubes that convect water from an external heater-pump. Respiration was monitored using a pneumatic pillow (SA Instruments, Stonybrook, USA); isoflurane levels were adjusted to maintain respiration at approximately 50 breaths/minute.
FAIR images were obtained using a 7 Tesla micro-MRI system (BioSpec 70/30 USR, Bruker BioSpin, Ettlingen, Germany), including the B-GA12 gradient insert, 72 mm inner diameter linear volume resonator for RF transmission, and anteriorly placed head coil for RF reception. […] FAIR images were evaluated by manual prescription (MIPAV, NIH, Bethesda, MD; http://mipav.cit.nih.gov) of sub-hemispheric regions-of-interest (ROIs), termed ‘global’, and local ROIs corresponding to cortical and sub-cortical parenchyma in forebrain sections; cortical and paraventricular parenchyma in middle sections; and cortical and midbrain parenchyma in hindbrain sections. […]

CFTR, sequence (P26361 whole entry): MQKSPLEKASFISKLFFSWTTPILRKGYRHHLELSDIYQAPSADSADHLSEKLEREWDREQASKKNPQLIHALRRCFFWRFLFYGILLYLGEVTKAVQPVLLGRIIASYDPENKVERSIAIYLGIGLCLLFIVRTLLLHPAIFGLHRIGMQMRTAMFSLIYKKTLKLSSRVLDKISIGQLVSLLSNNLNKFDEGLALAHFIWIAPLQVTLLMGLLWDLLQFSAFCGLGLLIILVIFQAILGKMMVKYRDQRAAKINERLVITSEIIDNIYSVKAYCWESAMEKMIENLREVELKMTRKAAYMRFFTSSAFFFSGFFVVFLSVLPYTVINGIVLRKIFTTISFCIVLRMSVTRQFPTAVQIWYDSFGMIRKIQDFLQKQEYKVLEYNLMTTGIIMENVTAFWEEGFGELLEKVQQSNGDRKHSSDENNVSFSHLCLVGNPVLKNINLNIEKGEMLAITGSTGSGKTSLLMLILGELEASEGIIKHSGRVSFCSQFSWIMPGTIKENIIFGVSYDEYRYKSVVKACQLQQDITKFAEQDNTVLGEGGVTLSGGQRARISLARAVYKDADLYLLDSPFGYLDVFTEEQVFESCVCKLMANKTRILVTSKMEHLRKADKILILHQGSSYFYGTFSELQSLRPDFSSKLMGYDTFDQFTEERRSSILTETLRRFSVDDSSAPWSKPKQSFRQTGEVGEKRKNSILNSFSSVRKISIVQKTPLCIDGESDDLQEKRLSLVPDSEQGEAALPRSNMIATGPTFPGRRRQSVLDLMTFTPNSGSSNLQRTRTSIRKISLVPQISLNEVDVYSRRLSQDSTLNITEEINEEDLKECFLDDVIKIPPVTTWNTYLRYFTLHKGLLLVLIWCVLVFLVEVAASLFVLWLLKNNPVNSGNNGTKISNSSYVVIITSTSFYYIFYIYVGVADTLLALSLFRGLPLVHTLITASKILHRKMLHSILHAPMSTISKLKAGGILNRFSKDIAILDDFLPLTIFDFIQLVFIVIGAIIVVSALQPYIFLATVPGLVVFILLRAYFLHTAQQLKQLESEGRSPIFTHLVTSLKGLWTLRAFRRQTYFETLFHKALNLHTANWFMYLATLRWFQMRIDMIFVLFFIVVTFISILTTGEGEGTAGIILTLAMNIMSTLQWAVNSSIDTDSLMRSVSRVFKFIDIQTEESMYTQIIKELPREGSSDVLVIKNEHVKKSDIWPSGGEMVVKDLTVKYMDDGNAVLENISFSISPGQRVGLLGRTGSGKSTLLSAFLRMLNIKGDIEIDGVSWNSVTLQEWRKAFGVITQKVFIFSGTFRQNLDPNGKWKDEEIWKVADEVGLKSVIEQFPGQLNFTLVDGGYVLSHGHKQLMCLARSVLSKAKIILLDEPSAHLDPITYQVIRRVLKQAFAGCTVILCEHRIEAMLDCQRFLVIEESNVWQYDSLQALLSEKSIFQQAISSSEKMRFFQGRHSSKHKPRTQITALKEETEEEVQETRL

SMILES: O=C(Nc1ncc(C(c2ccccc2Cl)N2CCC(O)C2)s1)C1(c2ccc3c(c2)OCO3)CC1 (centres unmarked) [C18, 1-(benzo[d][1,3]dioxol-5-yl)-N-(5-((2-chlorophenyl)(3-hydroxypyrrolidin-1-yl)methyl)thiazol-2-yl)cyclopropanecarboxamide]
- FITC-labeled sphingosine-1-phosphate uptake after TNF [1]: fully restores; also recorded: normalization
- cerebral blood flow / cerebral perfusion [2]: restores; also recorded: significantly improves
